Patent US6740670B2, “Thiazolidine derivatives and its use as antifungal agent” (Oxford Glycosciences (UK) Ltd., priority 2000, dated 2004)

What was measured:
[1] = biological target: T1, Candida albicans PMT-1 enzyme (Candida albicans, UniProt O74189); assay: PMT-1 assay; format: biochemical; conditions: Candida albicans membrane protein, peptide DYATAV, dolicholphospho-[3H]-mannose, 60 minutes at 25° C., pH 8.0; read-out: PMT-1 Inhibition (IC50)
T1 construct: 25 μg of Candida albicans membrane protein; endogenous in cells
T1 sequence (O74189 1-877): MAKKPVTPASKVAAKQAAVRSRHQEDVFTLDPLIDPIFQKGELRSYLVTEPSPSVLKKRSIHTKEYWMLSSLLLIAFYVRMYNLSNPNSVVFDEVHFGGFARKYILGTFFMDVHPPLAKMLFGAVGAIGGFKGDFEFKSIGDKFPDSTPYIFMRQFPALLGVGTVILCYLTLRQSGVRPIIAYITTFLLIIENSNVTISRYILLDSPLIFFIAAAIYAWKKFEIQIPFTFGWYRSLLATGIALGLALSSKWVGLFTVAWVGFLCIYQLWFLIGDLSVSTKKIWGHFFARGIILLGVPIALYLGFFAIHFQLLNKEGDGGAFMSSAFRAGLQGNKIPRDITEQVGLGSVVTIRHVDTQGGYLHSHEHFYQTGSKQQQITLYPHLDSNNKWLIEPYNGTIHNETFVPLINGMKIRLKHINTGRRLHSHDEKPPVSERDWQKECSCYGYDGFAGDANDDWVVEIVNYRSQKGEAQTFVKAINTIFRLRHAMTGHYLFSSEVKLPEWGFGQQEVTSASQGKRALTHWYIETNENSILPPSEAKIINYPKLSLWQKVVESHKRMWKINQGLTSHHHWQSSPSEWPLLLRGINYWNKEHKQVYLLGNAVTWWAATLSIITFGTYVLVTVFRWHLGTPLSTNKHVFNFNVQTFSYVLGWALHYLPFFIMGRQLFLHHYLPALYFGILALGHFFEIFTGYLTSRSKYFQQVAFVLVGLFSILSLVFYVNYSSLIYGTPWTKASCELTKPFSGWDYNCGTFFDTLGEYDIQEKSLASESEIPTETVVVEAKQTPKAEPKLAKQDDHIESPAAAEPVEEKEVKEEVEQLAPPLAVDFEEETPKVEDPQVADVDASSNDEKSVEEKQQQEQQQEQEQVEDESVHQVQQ
Experimental: The assay method is based upon the transfer of a radiolabelled mannose moiety from dolicholphosphomannose onto a threonine hydroxyl residue in a short peptide, as catalysed by the Candida albicans PMT-1 enzyme. Dolicholphospho-[^3H]-mannose is synthesised enzymatically from GDP-[^3H]-mannose and purified by chloroform: methanol extraction.
100000 Dpm of the generated substrate is incubated with 400 μg phosphatidylcholine, 25 μg of peptide (DYATAV) and 25 μg of Candida albicans membrane protein in a final volume of 50 μl in 100 mM Tris/1 mM MgCl2 buffer, pH 8.0. After 60 minutes at 25° C., the reaction is stopped with 50 μl of methanol. The unreacted radiolabel is removed by the addition of 150 μl of 0.4 g/ml octadecyl-functionalised silica (C18) in methanol. The C18 material is removed by centrifugation and the activity transferred to the peptide is counted in the supernatant.

[2] = system: Candida albicans (strain SC5314); assay: G418 sensitivity assay; format: cell-based; conditions: G418 100 μg/ml, overnight at 37° C., OD600 nm, concentration giving 50% reduction in cell growth relative to culture with G418 alone
Experimental: This assay is based upon the observed increased sensitivity of the pmt1−/− Candida strain to Geneticin (G418) (6). 100 μl of a 0.1OD600 nm culture of Candida albicans (strain SC5314) is placed into a 96 well plate in the presence or absence of varying concentrations of test compound. The compounds are initially dissolved in DMSO and added to the cultures at a final DMSO concentration of 1%. G418 is added to a final concentration of 100 μg/ml. In the absence of PMT1 inhibition, this concentration of G418 has no effect on the proliferation of the organism. The cultures are grown overnight at 37° C. and cell density is then estimated by an OD600 nm measurement. The effect of the test compound is calculated as the concentration that gives a 50% reduction in cell growth relative to the culture with G418 alone.

IC50 [1] [nM] | IC50 [2] [nM] | melting point [°C] | SMILES
700 | 700 |  | CCCCCN(CCCCC)C(=O)c1cc(/C=C2\SC(=S)N(CC(=O)O)C2=O)ccc1OCc1ccc(F)cc1F [Example 49, 5-[[[3-(N,N-Dipentylamino)carbonyl-4-[(2,4-difluorophenyl)-methoxy]]phenyl]methylene]-4-oxo-2-thioxo-3-thiazolidineacetic acid]
600 | 650 | 204 to 209 | C[C@@H](c1ccccc1)N(Cc1ccccc1)C(=O)c1cc(/C=C2\SC(=S)N(CC(=O)O)C2=O)ccc1OCc1ccccc1 [Example 35, 5-[[[3-((S)-N-Benzyl-N-alpha-methylbenzylamino)carbonyl-4-(phenyl-methoxy)]-phenyl]methylene]-4-oxo-2-thioxo-3-thiazolidineacetic acid]
2500 | 1500 |  | CCCCCN(CCCCC)C(=O)c1cc(/C=C2\SC(=S)N(CC(=O)O)C2=O)ccc1OCc1ccccc1 [Example 34, 5-[[[3-(N,N-Dipentylamino)carbonyl-4-(phenylmethoxy)]-phenyl]methylene]-4-oxo-2-thioxo-3-thiazolidineacetic acid]
